Biological target: T1, human AR (Homo sapiens, UniProt P10275)
T1 construct: expressed in transfected cells; host or cells: COS-1 cells
T1 sequence (P10275 1-920): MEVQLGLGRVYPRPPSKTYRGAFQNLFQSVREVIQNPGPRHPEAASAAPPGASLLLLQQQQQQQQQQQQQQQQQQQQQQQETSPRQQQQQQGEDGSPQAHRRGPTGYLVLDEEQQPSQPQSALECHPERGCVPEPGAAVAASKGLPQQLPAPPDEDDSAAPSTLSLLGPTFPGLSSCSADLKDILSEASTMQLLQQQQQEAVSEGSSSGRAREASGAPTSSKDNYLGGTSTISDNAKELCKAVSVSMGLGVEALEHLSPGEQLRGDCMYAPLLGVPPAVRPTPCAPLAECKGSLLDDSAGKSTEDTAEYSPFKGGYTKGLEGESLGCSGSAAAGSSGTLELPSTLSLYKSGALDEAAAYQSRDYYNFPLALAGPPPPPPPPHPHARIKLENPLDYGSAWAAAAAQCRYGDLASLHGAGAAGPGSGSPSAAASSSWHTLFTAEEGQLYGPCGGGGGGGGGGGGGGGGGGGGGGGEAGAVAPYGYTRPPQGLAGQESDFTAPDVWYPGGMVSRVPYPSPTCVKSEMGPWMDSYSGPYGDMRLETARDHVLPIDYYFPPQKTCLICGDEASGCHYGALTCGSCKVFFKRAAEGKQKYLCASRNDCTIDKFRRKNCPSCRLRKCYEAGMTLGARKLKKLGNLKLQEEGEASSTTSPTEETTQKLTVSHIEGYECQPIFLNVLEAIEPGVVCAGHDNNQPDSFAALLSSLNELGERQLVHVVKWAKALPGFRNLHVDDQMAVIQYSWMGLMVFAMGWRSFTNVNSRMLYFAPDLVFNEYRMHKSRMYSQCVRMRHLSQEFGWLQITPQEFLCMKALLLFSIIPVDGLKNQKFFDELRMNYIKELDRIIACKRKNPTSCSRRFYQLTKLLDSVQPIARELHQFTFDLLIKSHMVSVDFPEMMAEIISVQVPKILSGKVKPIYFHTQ
Experiment: IR Binding Assay: whole cell competitive binding of test compounds against 3H-DHT in COS-1 cells transfected with pRShAR
Details: not given
Summary of the method: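 COS-1 cells transfected with pRShAR plus β-Gal reporter, serum-starved 24 h, then exposed to 1 nM ³H-DHT with compounds at 10^−10 to 10^−6 M for 3 h at 37 °C. Bound ³H-DHT counted in lysates, normalized to β-Gal. IC50 from log-logit plot; Ki via Cheng-Prusoff using Kd from Scatchard saturation analysis.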

Compound | Ki [nM]
Cc1[nH]c2ccc3[nH]c(=O)cc(Cl)c3c2c1CC(=O)O [Compound 122, (9-Chloro-2-methyl-7-oxo-6,7-dihydro-3H-pyrrolo[3,2-f]quinolin-1-yl)-acetic acid] | < 5
Cc1c[nH]c2ccc3[nH]c(=O)cc(Cl)c3c12 [Compound 114, 9-Chloro-1-methyl-3,6-dihydro-pyrrolo[3,2-f]quinolin-7-one] | > 10
CCN1CC(C)c2c1ccc1[nH]c(=O)cc(Cl)c21 (racemic) [Compound 134, (±)-9-Chloro-3-ethyl-1-methyl-1,2,3,6-tetrahydro-pyrrolo[3,2-f]quinolin-7-one] | < 5
CCc1c(C)c2c3c(C(F)(F)F)cc(=O)[nH]c3ccc2n1CC(F)(F)C(F)(F)F [Compound 225, 2-Ethyl-1-methyl-3-(2,2,3,3,3-pentafluoropropyl)-9-trifluoromethyl-3,6-dihydro-pyrrolo[3,2-f]-quinolin-7-one] | < 5
Cc1ccc(-c2c(C)c3c4c(Cl)cc(=O)[nH]c4ccc3n2CC(F)(F)C(F)(F)F)s1 [Compound 268, 9-Chloro-1-methyl-2-(5-methylthiophen-2-yl)-3-(2,2,3,3,3-pentafluoropropyl)-3,6-dihydro-pyrrolo[3,2-f]quinolin-7-one] | < 5
CCc1c(C)[nH]c2ccc3[nH]c(=O)cc(Cl)c3c12 [Compound 109, 9-Chloro-2-methyl-1-ethyl-3,6-dihydro-pyrrolo[3,2-f]quinolin-7-one] | > 10
CC1Cc2c(ccc3[nH]c(=O)cc(Cl)c23)N1CC(F)(F)F (racemic) [Compound 131, (±)-9-Chloro-2-methyl-3-(2,2,2-trifluoro-ethyl)-1,2,3,6-tetrahydropyrrolo[3,2-f]quinolin-7-one] | > 10
Cc1c(-c2cccs2)n(CC(F)(F)F)c2ccc3[nH]c(=O)cc(Cl)c3c12 [Compound 207, 9-Chloro-1-methyl-2-thien-2-yl-3-(2,2,2-trifluoroethyl)-3,6-dihydro-pyrrolo[3,2-f]quinolin-7-one] | < 5
CC1c2c(ccc3[nH]c(=O)cc(C(F)(F)F)c23)N(CC(F)(F)Cl)C1C (racemic) [Compound 175, (±)-3-(2-Chloro-2,2-difluoroethyl)-1,2-dimethyl-9-trifluoromethyl-1,2,3,6-tetrahydro-pyrrolo[3,2-f]quinolin-7-one] | < 5
Cc1c(-c2ccc(F)cc2)[nH]c2ccc3[nH]c(=O)cc(Cl)c3c12 [Compound 116, 9-Chloro-2-(4-fluorophenyl)-1-methyl-3,6-dihydro-pyrrolo[3,2-f]quinolin-7-one] | < 5
Cc1c(C)n(CCOCCOCCO)c2ccc3[nH]c(=O)cc(C(F)(F)F)c3c12 [Compound 298, 3-{2-[2-(2-Hydroxy-ethoxy)-ethoxy]-ethyl}-1,2-dimethyl-9-trifluoromethyl-3,6-dihydro-pyrrolo[3,2-f]quinolin-7-one] | > 10
CCc1c(C)c2c3c(C(F)(F)F)cc(=O)[nH]c3ccc2n1CCCC(F)(F)F [Compound 228, 2-Ethyl-1-methyl-3-(4,4,4-trifluorobutyl)-9-trifluoromethyl-3,6-dihydro-pyrrolo[3,2-f]-quinolin-7-one] | < 5
O=c1cc(Cl)c2c3c(ccc2[nH]1)N(CC(F)(F)F)C1CCCC31 (racemic) [Compound 126, (±)-9-Chloro-3-(2,2,2-trifluoro-ethyl)-1,2-trimethylene-1,2,3,6-tetrahydro-pyrrolo[3,2-f]-quinolin-7-one] | < 5
CCc1c(C)c2c3c(Cl)cc(=O)[nH]c3ccc2n1CCC(F)(F)F [Compound 216, 9-Chloro-2-ethyl-1-methyl-3-(3,3,3-trifluoropropyl)-3,6-dihydro-pyrrolo[3,2-f]quinolin-7-one] | < 5
Cc1c(-c2ccccc2)n(CC(F)(F)C(F)(F)F)c2ccc3[nH]c(=O)cc(Cl)c3c12 [Compound 218, 9-Chloro-1-methyl-3-(2,2,3,3,3-pentafluoropropyl)-2-phenyl-3,6-dihydro-pyrrolo[3,2-f]-quinolin-7-one] | < 5
CCc1c(C)n(CC(F)(F)F)c2ccc3[nH]c(=O)cc(Cl)c3c12 [Compound 185, 9-Chloro-1-ethyl-2-methyl-3-(2,2,2-trifluoroethyl)-3,6-dihydro-pyrrolo[3,2-f]quinolin-7-one] | < 5
Cc1ccc(-c2c(C)c3c4c(Cl)cc(=O)[nH]c4ccc3n2C[C@@H](O)C(F)(F)F)o1 [Compound 284, (R)-9-Chloro-1-methyl-2-(5-methylfuran-2-yl)-3-(3,3,3-trifluoro-2-hydroxy-propyl)-3,6-dihydro-pyrrolo[3,2-f]quinolin-7-one] | < 5
Cc1ccc(-c2c(C)c3c4c(Cl)cc(=O)[nH]c4ccc3n2C[C@@H](O)C(F)(F)F)s1 [Compound 285, (R)-9-Chloro-1-methyl-2-(5-methylthiophen-2-yl)-3-(3,3,3-trifluoro-2-hydroxy-propyl)-3,6-dihydro-pyrrolo[3,2-f]quinolin-7-one] | < 5
Cc1c(C)n(CCC(C)(C)O)c2ccc3[nH]c(=O)cc(C(F)(F)F)c3c12 [Compound 239, 3-(3-Hydroxy-3-methyl-butyl)-1,2-dimethyl-9-trifluoromethyl-3,6-dihydro-pyrrolo[3,2-f]-quinolin-7-one] | > 10
Cc1c(-c2ccc(Cl)cc2)[nH]c2ccc3[nH]c(=O)cc(Cl)c3c12 [Compound 118, 9-Chloro-2-(4-chlorophenyl)-1-methyl-3,6-dihydro-pyrrolo[3,2-f]quinolin-7-one] | < 5
Cc1c(-c2ccccc2)n(C[C@@H](O)C(F)(F)F)c2ccc3[nH]c(=O)cc(Cl)c3c12 [Compound 280, 9-Chloro-1-methyl-2-phenyl-3-(3,3,3-trifluoro-2-hydroxy-propyl)-3,6-dihydro-pyrrolo[3,2-f]quinolin-7-one] | > 10
Cc1c(-c2ccccc2)[nH]c2ccc3[nH]c(=O)cc(Cl)c3c12 [Compound 110, 9-Chloro-1-methyl-2-phenyl-3,6-dihydro-pyrrolo[3,2-f]quinolin-7-one] | < 5
Cc1c(C)n(C[C@@H](O)C(F)(F)F)c2ccc3[nH]c(=O)cc(Cl)c3c12 [Compound 278, (R)-9-Chloro-1,2-dimethyl-3-(3,3,3-trifluoro-2-hydroxy-propyl)-3,6-dihydro-pyrrolo[3,2-f]-quinolin-7-one] | < 5
Cc1c(C)n(CCCC(F)(F)F)c2ccc3[nH]c(=O)cc(C(F)(F)F)c3c12 [Compound 227, 1,2-Dimethyl-3-(4,4,4-trifluorobutyl)-9-trifluoromethyl-3,6-dihydro-pyrrolo[3,2-f]-quinolin-7-one] | < 5
CCc1c(C)c2c3c(C(F)(F)F)cc(=O)[nH]c3ccc2n1CCCO [Compound 286] | < 5
O=c1cc(Cl)c2c(ccc3[nH]c4c(c32)CCC4)[nH]1 [Compound 107, 9-Chloro-1,2-trimethylene-3,6-dihydro-pyrrolo[3,2-f]quinolin-7-one] | > 10
CC1c2c(cc(F)c3[nH]c(=O)cc(Cl)c23)N(CC(F)(F)F)C1C (racemic) [Compound 151, (±)-9-Chloro-1,2-dimethyl-5-fluoro-3-(2,2,2-trifluoro-ethyl)-1,2,3,6-tetrahydro-pyrrolo[3,2-f]quinolin-7-one] | < 5
Cc1c(-c2ccncc2)n(C[C@@H](O)C(F)(F)F)c2ccc3[nH]c(=O)cc(Cl)c3c12 [Compound 283, (R)-9-Chloro-1-methyl-2-(4-pyridyl)-3-(3,3,3-trifluoro-2-hydroxy-propyl)-3,6-dihydro-pyrrolo[3,2-f]quinolin-7-one] | 5 to 10
Cc1c(-c2ccncc2)n(C[C@H](O)C(F)(F)F)c2ccc3[nH]c(=O)cc(Cl)c3c12 [Compound 273, (S)-9-Chloro-1-methyl-2-(4-pyridyl)-3-(3,3,3-trifluoro-2-hydroxy-propyl)-3,6-dihydro-pyrrolo[3,2-f]quinolin-7-one] | > 10

Same assay, conditions: competition with 1 nM 3H-DHT, transfected COS-1 cells, 3 h at 37° C., Cheng-Prusoff from IC50; read-out: Ki

Compound | Ki [nM]
COc1ccc(-c2[nH]c3ccc4[nH]c(=O)cc(Cl)c4c3c2C)cc1 [Compound 115, 9-Chloro-2-(4-methoxy-phenyl)-1-methyl-3,6-dihydro-pyrrolo[3,2-f]quinolin-7-one] | > 10
CCc1c(-c2ccccc2)[nH]c2ccc3[nH]c(=O)cc(Cl)c3c12 [Compound 125, 9-Chloro-1-ethyl-2-phenyl-3,6-dihydro-pyrrolo[3,2-f]quinolin-7-one] | > 10
Cc1ccc(-c2c(C)c3c4c(Cl)cc(=O)[nH]c4ccc3n2CC(F)(F)F)o1 [Compound 256, 9-Chloro-1-methyl-2-(5-methyl-2-furyl)-3-(2,2,2-trifluoroethyl)-3,6-dihydro-pyrrolo[3,2-f]-quinolin-7-one] | < 5

Source: patent US8580811B2 (Ligand Pharmaceuticals Incorporated, priority 2005, dated 2013)
